Values quoted from earlier work, collected in patent publication US7307164B2, “β-amino heterocyclic dipeptidyl peptidase inhibitors for the treatment or prevention of diabetes” (Merck & Co., Inc., priority 2002, dated 2007).

How the values were obtained:
DP-IV = target: T1, DP-IV (Homo sapiens, UniProt P27487)
T1 construct: GRF is rapidly degraded in plasma to GRF[3-44]

cardiac allograft = settings: rats; survival from day 7 to day 14
hematopoiesis = settings: mouse, cyclophosphamide-induced neutropenia

T1 sequence (P27487 whole entry): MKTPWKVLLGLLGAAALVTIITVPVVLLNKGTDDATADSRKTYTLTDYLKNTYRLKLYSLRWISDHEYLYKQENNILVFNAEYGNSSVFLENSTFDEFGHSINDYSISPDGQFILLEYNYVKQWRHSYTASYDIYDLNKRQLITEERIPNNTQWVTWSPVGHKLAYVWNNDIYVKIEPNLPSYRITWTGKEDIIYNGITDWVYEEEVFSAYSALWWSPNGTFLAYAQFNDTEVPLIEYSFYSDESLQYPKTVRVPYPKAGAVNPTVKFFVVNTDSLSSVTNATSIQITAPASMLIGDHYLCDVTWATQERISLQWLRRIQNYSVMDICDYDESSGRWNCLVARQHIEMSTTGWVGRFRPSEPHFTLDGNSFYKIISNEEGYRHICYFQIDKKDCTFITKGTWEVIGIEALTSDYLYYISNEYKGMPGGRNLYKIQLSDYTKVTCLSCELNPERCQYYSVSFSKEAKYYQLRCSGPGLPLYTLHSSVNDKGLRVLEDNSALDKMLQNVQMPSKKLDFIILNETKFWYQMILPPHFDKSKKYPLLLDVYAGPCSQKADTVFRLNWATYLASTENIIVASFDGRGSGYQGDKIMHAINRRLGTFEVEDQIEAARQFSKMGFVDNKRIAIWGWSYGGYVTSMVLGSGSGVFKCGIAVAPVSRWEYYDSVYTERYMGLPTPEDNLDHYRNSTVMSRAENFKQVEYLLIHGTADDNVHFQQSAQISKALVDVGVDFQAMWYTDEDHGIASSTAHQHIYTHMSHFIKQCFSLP

For CC[C@H](C)[C@H](N)C(=O)N1CCC[C@H]1C(=O)N[C@H](C(=O)O)[C@@H](C)CC [diprotin A], the “degradation of GRF in plasma to GRF[3-44]” value (DP-IV) is given as “prevented”.

In the case of CC(C)N1CCC(c2ccccc2)(c2ccccc2)CC1 [Prodipine, Pro-Pro-diphenyl-phosphonate], the cardiac allograft survival (cardiac allograft) is listed as “double cardiac allograft survival”.

For CC(C)[C@H](N)C(=O)N1CCC[C@H]1B(O)O [Val-Boro-Pro], the hematopoiesis (hematopoiesis) is listed as “stimulated hematopoiesis”.
